Entries after “also recorded” stand apart in the source; their conditions may differ.
Test system: HCV (JFH-1) infected Huh7 cells
Conditions: 24 hours; for effect on HCV replication (in words): HCV RNA by qPCR (FIG. 9; discussion)
Source text: Huh7 cells were infected with the JFH-1 strain of hepatitis C virus (genotype 2a) as previously described in Wakita et al., (2005), “Production of infectious hepatitis C virus in tissue culture from a cloned viral genome”, Nat. Med., 11(7):791-796). Briefly, pJFH-1 plasmids encoding full length HCV genome (provided by T. Wakita, National Institute of Infectious Diseases, Japan) were linearized and HCV RNA was synthesized using T7 RiboMAX™ Express Large Scale RNA Production System (Promega). 10 μg of HCV RNA was added to 1.6×10^6 Huh7 cells suspended in 800 ul PBS buffer. A Bio-Rad Gene Pulser system was used to deliver a single pulse at 0.34 kV, 975 μF, using 4 mm electroporation cuvettes. Cells were cultured at 37° C. in a 5% CO2 atmosphere in Dulbecco's modified Eagle's medium (DMEM) supplemented with 10% fetal bovine serum for 10 days (Gibco).
HCV RNA was amplified from infected Huh7 cells using specific primers targeting the 5′ noncoding region under the following conditions: 10 min at 95° C.; 40 cycles of 94° C. for 15 s and 60° C. for 45 s. Samples were analysed in triplicate and relative expression of HCV RNA normalised to 18s.
JFH-1 infected Huh7 cells cultured in 6 well plates were treated with HU-210 (100 nM), either alone or with increasing concentrations of the antagonists NlDA-41020 or (S)-SLV-319 (1 nM, 10 nM, 100 nM and 1 μM). Untreated cells and cells treated with CB1 antagonist alone (100 nM) were used as controls. After 24 hours cells were harvested, total RNA extracted, and HCV RNA measured by qPCR. Three replicate experiments were performed for each set of conditions and mean values calculated.

Compound	effect on HCV replication (in words)	increase of HCV replication (HU-210 100 nM, HCV RNA by qPCR normalised to 18s (FIG. 7)) [%]
CN=C(NS(=O)(=O)c1ccc(Cl)cc1)N1C[C@H](c2ccccc2)C(c2ccc(Cl)cc2)=N1 [(S)-SLV-319, 3-(4-chlorophenyl)-N-[(4-chlorophenyl)sulfonyl]-4,5-dihydro-N′-methyl-4-phenyl-1H-pyrazole-1-carboximidamide]	inhibit HCV replication in a dose-dependent manner; also recorded: inhibited	–
CCCCCCC(C)(C)c1cc(O)c2c(c1)OC(C)(C)[C@@H]1CC=C(CO)C[C@@H]21 [HU-210]	stimulated	40
